Reference: patent publication US20170087104A1, “MEDICAMENT” (AFT Pharmaceuticals Ltd., priority 2013, published 2017)
Where a name gives a salt, the structure may show the parent alone.

Legend:
[1] = First crossover study: absorption of phenylephrine, PE HCl alone vs Maxigesic PE (28 adult subjects); assay type: in vivo; details: human, 10 mg; phenylephrine in blood plasma, mean, oral tablets, n = 28 adult humans
[2] = Third cross-over study: Maxiclear PE 2.5 (two tablets) vs Sudafed PE (6 adult subjects); assay type: in vivo; details: human, oral, 10 mg; phenylephrine in plasma, mean, untransformed data, n = 6 adult humans

Question: With `CNC[C@H](O)c1cccc(O)c1` [10 mg phenylephrine hydrochloride, phenylephrine hydrochloride] as the compound, how does the Cmax [1] read?
Answer: Its Cmax is 0.874 ng/mL.

Question: What about the Tmax [1] of the same compound?
Answer: Its Tmax is 42 min.

Question: What about the Cmax [2] of the same compound?
Answer: Its Cmax is 1.13 ng/mL.

Question: And the Tmax [2]?
Answer: Its Tmax is 42 min.
